pIC50: −log10 of the molar value. Ends that are not written are not given here.
How the values were obtained:
SKOV3 tumors = experiment: In vivo efficacy on established SKOV3 tumors; design: species or system mice; settings: day 16; cisplatin 5 mg/kg i.p., IRIS peptide 10 mg/kg i.t., every third day, four times
Description: Further, to determine whether IRIS peptide could have any efficacy in vivo and/or whether it sensitizes ovarian tumors to low, clinically relevant concentrations of cisplatin, four sets of nude mice (n=6 each) were subcutaneously injected with SKOV3 cells. Ten days later, when tumors were ˜250 mm^3 in volume, one group was treated with controls (i.e. DMSO delivered i.p. and scrambled peptide delivered directly into the tumors, i.t.), a second group was treated with cisplatin (5 mg/kg, delivered i.p.), a third group was treated with IRIS peptide (10 mg/kg, injected i.t.), and a fourth group was treated with both. Treatments were delivered every third day for a total of four times. For the next 16 days, tumors were measured daily with a caliper. Mice were then sacrificed, and their tumors or their remnants were taken.
Efficacy of BRCA1-IRIS inhibitory peptide, in vivo. Six to eight week old female athymic SCID mice were injected subcutaneously with 2.5×10^6 SKOV3 cells in the flank region. Their respective tumor growth was measured with a caliper. When the tumor volume reached 250 mm^3, mice were randomly grouped into four groups. One group (control) was treated with scrambled peptide (10 mg/kg) and DMSO. A second was treated with BRCA1-IRIS inhibitory peptide (10 mg/kg, body weight). […] Change in tumor volume was measured to monitor the efficacy of the treatment. […]

SKOV3 cells = format: cell-based, human; settings: 48 h
Description: Thus, a peptide (hereafter IRIS peptide) composed of a cell/nucleus penetrating signal (FIG. 26) fused to BRCA1-IRIS intron 11 (FIG. 26) was synthesized. Equal numbers of HOSE, HOSE/IRIS, SKOV3, OVCAR3, OVCAR420 and OV-90 cells were grown in the presence of increasing concentrations of IRIS peptide for 48 hours.
To investigate the contribution of ErbB2 and TrkB to BRCA1-IRIS-induced cisplatin resistance, equal numbers of SKOV3 cells were either depleted from BRCA1-IRIS, ErbB2 or TrkB using specific siRNAs for 48 hours before they were (i) exposed to increasing concentrations of cisplatin for another 24 hours or (ii) exposed to IRIS peptide, ErbB2 inhibitor (CP-724714), TrkB inhibitor (K252a) or both for 24 hours, before they were exposed to increasing concentrations of cisplatin for another 24 hours.
Cell viability measurement. Cell viability under different experimental conditions was determined using the MTS assay […]. Briefly, SKOV3, OVACAR3, HOSE and HOSE/IRIS cells (2.5×10^4 cells per well) were seeded in 96 well plates and incubated overnight at 37° C. in 10% humidified CO2 atmosphere in varying concentrations of IRIS peptide, or inhibitors of ErbB2 (CP-724714), EGFR (Erlotinib), TrkB (K252a), JNK (SP600125), p38 (SB203580), ERK (PD98059) and PI3′K/AKT (LY294002) inhibitors for 24 hours at 37° C. Cell Titer 96® Aqueous (Promega, Madison, Wis., USA) was used to measure viability following manufactures instructions. Cell viability (%) was expressed as a ratio to control cells×100. Growth inhibition was also determined by manually counting cells in five different microscopic fields. Change in cell numbers (fold) was expressed as a ratio to control cells×100. All experiments were done in at least triplicates, three different times. * is p≦0.05, ** is p≦0.001 and *** is p≦0.0001.
Transfections of siRNA. siRNAs for human ErbB2 and TrkB were purchased from Ambion and Santa Cruz Biotechnology, USA. Custom synthesized siRNA against BRCA1 IRIS was used. siRNA against luciferase gene was used as the negative control. Sub-confluent cells were transfected in 6- or 96-well plates with ErbB2 (100 nM), TrkB (100 nM), BRCA1 IRIS (200 nM) or control siRNA using Oligofectamine™ reagent (GibcoBRL Inc, USA) following the instructions of the manufacturer. Protein expression was tested by Western blot after 72 hours of siRNA transfection. Cell viability was evaluated by MTS or by manual counting after 72 hours of siRNA exposure alone or in combination with cisplatin exposure (for an additional 24 hours).

[1] = test system: HME, HME/IRIS, MDA-MB-231, MDA-MB-468 and BT549 cells; experiment: Survival of breast cell lines with IRIS peptide, paclitaxel or both; format: cell-based, human; settings: all cell lines; IRIS peptide alone, 0.5 μM (HME) or 5 μM (others), 24 hours
Description: To investigate whether inactivating BRCA1-IRIS could sensitize TNBC to paclitaxel-induced cell death, HME cells were exposed to 0.5 μM, while HME/IRIS, MDA-MB-231, MDA-MB-468 and BT549 cells were exposed to 5 μM of IRIS peptide alone or with 5, 10 or 20 μM of paclitaxel for 24 hours. […] Again, IRIS peptide alone at these concentrations led to 50% reduction in survival of all cell lines. […] Indeed, in the presence of IRIS peptide >60%, >70% and >90% reduction in the survival of all cell lines in the presence of 5, 10 and 20 μM of paclitaxel, respectively (FIG. 84).
Cell viability measurement. Cell viability under different experimental conditions was determined using the MTS assay. Briefly, cells (2.5×10^4 cells per well) were seeded in 96-well plates and incubated overnight at 37° C. in 10% humidified CO2 atmosphere. The next day they were incubated with varying concentration of peptide, or inhibitors for 24 hours at 37° C. Cell viability was determined using cell Titer 96® Aqueous (Promega, Madison, Wis., USA) following manufacturer's instructions. Cell viability (%) was expressed as a ratio of treated cells to control cells×100. Growth inhibition was also determined by manually counting cells in five different microscopic fields. Change in cell numbers (fold) was expressed as a ratio of the means of these recording of treated cells compared to control cells×100. Each experiment was done in triplicate, repeated three separate times.

HME cells = settings: 48 h
Description: All cell lines were exposed to increasing concentrations of paclitaxel and BRCA1-IRIS expression, and cells' viability was then measured.
Cell viability measurement. Cell viability under different experimental conditions was determined using the MTS assay. Briefly, cells (2.5×10^4 cells per well) were seeded in 96-well plates and incubated overnight at 37° C. in 10% humidified CO2 atmosphere. The next day they were incubated with varying concentration of peptide, or inhibitors for 24 hours at 37° C. Cell viability was determined using cell Titer 96® Aqueous (Promega, Madison, Wis., USA) following manufacturer's instructions. Cell viability (%) was expressed as a ratio of treated cells to control cells×100. […] Each experiment was done in triplicate, repeated three separate times.

With “RRIRPRPPRLPRPRPRPLPFPRPGIGTRFLCLPQSIYRSELNVYAFGEHILQISKYS [IRIS peptide]” as the sequence, how does the “reduction in tumor size” value (SKOV3 tumors) read?
Its value is ~50%.

And the pIC50 (SKOV3 cells)?
Its pIC50 is ~5.00.

What about the reduction in survival [1] of the same sequence?
Its reduction in survival is 50%.

And the pIC50 (HME cells)?
The pIC50 was ~6.30.

Reference: US9303069B2, “Peptides for treating cancer” (University of Mississippi Medical Center, priority 2014, dated 2016)
